The results in this text go back to patent US6342504B1, “Aromatic heterocyclic derivatives as enzyme inhibitors” (priority 1994, dated 2002).

The experiment relates to FeCl3-induced occlusive thrombus in rat carotid artery. The experiment is described as follows: Rat model of FeCl3-induced platelet-dependent arterial thrombosis. Type of experiment: in vivo. The source says:
Rat Model of FeCl3-induced Platelet-dependent Arterial Thrombosis
Kurz, K. D., Main, B. W., and Sandusky, G. E., Thromb. […] In this model a platelet-rich, occlusive thrombus is formed in a segment of the rat carotid artery treated locally with a fresh solution of FeCl3 absorbed to a piece of filter paper. The FeCl3 is thought to diffuse into the treated segment of artery and cause de-endothelialization of the affected vessel surface. […] The effect of a test compound on the incidence of occlusive thrombus formation following the application of the FeCl3 is monitored by ultrasonic flowtometry and is used as the primary end point. The use of flowtometry to measure carotid artery blood flow, is a modification of the original procedure in which thermal detection of clot formation was employed. Kurz, K. D., Main, B. W., and Sandusky, G. E., Thromb.
Male Harlan Sprague Dawley rats (420-450 g) were acclimated at least 72 hours prior to use and fasted for 12 hours prior to surgery with free access to water. The animals were prepared, anesthetized with Nembutal followed by the insertion of catheters for blood pressure monitoring, drug and anesthesia delivery. The left carotid artery was isolated by making a midline cervical incision followed by blunt dissection and spreading techniques to separate a 2 cm segment of the vessel from the carotid sheath. A silk suture is inserted under the proximal and distal ends of the isolated vessel to provide clearance for the placement of a ultrasonic flow probe (Transonic) around the proximal end of the vessel. The probe is then secured with a stationary arm.
The test compound was administered as a single intravenous bolus at the doses outlined in Table 4 after placement of the flow probe and 5 minutes prior to the thrombogenic stimulus. At t=0, a 3 mm diameter piece of filter paper (Whatman #3) soaked with 10 microliters of a 35% solution of fresh FeCl3 (made up in water) was applied the segment of isolated carotid artery distal to the flow probe. Blood pressure, blood flow, heart rate, and respiration were monitored for 60 minutes.
The incidence of occlusion (defined as the attainment of zero blood flow) was recorded as the primary end point.
This allows a direct comparison of the antithrombotic efficacy of [3-[(benzylsulfonyl)amino]-2-oxo-1,2-dihydropyridyl]acetyl-L-argininal, with other antithrombotic agents which have also been evaluated in this model as described above. Table 5 lists the ED50 values for several well known anticoagulant agents in this model compared to [3-[(benzylsulfonyl)amino]-2-oxo-1,2-dihydropyridyl]acetyl-L-argininal.

Take `CC1CNc2c(cccc2S(=O)(=O)N[C@@H](CCCNC(=N)N)C(=O)N2CC[C@@H](C)C[C@@H]2C(=O)O)C1` (stereo partly drawn) [Argatroban, 2R,4R-4-methyl-1-[N-2-(3-methyl-1,2,3,4-tetrahydro-8-quinolinesulfonyl)-L-argininal]-2-piperdinecarboxylic acid, reference compound]: for the setting “Rattus norvegicus, read-out: ED50 for thrombus prevention (dose that prevents complete thrombotic occlusion in 50% of animals)”, the ED50 amounted to 3.8 mg/kg.
For the compound Hirulog ™ [reference compound], for the setting “FeCl3 model of arterial thrombosis in rats”, the “ED50 for thrombus prevention (dose that prevents complete thrombotic occlusion in 50% of animals)” value is listed as 3.0 mg/kg.
